Measured values published in publication PMC7593776 (RSC Medicinal Chemistry, 2020).

Target: ERK2 (Homo sapiens, UniProt P28482)
Assay: Z′-LYTE kinase inhibition assay
Assay type: biochemical
Details: ATP concentration 100 μM

ERK2, sequence (P28482 whole entry): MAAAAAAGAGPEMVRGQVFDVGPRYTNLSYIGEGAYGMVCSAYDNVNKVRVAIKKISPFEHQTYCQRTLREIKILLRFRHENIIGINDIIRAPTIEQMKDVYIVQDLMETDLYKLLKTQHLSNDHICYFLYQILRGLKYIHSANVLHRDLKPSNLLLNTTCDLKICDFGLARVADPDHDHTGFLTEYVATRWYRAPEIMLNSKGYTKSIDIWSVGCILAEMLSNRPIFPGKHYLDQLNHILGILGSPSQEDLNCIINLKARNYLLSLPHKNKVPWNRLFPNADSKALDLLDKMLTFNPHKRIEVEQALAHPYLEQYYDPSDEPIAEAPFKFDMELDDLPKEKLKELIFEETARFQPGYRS

inhibition (in words): not inhibited
Compound: Nc1cccc2cc[nH]c(=O)c12 [MR1]
